Patent US10471119B2, “Composition for preventing, ameliorating, or treating neurological disease containing osmotin peptide as active ingredient” (INDUSTRY-ACADEMIC COOPERATION FOUNDATION GYEONGSANG …, priority 2015, dated 2019)
Residues, ends and D or L forms follow the SMILES beside them.

How the values were obtained:
[1] = Brain transfer of osmotin peptide-FITC after IP and tail vein (IV) injection, confocal fluorescence; format: in vivo, mice; conditions: for migration to the hippocampus of the brain: four hours later, FIG. 3
Protocol: In addition, osmotin peptide-FITC was administered to the mice by intraperitoneal (IP) injection and tail vein injection (IV). Four hours later, the mice were fixed by transcardial perfusion with 4% (v/v) ice-cold paraformaldehyde, and the brain was harvested and post-fixed in 4% (v/v) paraformaldehyde for 72 hours, and finally, transferred to a 20% (w/v) sucrose for 72 hours.
The brain was infiltrated with OCT (optimal cutting temperature compound) under liquid nitrogen, and a 14 μm coronal section was mounted on a ProbeOn Plus slide.
Slides for immunofluorescence analysis were washed twice with 0.01 M PBS buffer for 15 minutes. The sections were covered with proteinase K and incubated for 5 minutes in a humid chamber at the temperature of 37° C. Incubation was performed for one hour in a blocking solution containing 5% (v/v) normal goat serum dissolved in PBS buffer and 0.3% (v/v) Triton X-100. After the blocking process, the mounting cover slips and sections were observed on a confocal laser-scanning microscope (Flouview FV 1000).

[2] = system: human neuroblast line SH-SY5Y; test: ApoTox-Glo Triplex assay (cell viability, cytotoxicity, caspase-3 activity); format: cell-based; conditions: neuronal cells
Protocol: Human neuroblast line SH-SY5Y cells were cultured in 100 μl of dulbecco modified eagle medium (DMEM) supplemented with 10% (v/v) fetal bovine serum (FBS) and 1% (w/v) antibiotic (penicillin-streptomycin) at 37° C. and under the condition of 5% CO2.
Cells were seeded in a 96-well plate containing growth medium (DMEM medium containing 10% FBS, 100 units/ml penicillin, and […] streptomycin) in such a way that 100 μl of the culture was seeded in every cell at the population of 2×10^4 cells, and cultured under the condition of 5% CO2 at 37° C. When cells were about 70-90% confluent, they were transformed with pCAX-APP Swe/Ind for 8 hours by using Lipofectamine 3000 according to the manufacturers instructions. Then, the medium was removed by suction and replaced with fresh 100 μl of growth medium containing 0.5 to 20 μM osmotin-peptide. The cells in the fresh medium were incubated for 24 hours.
After 24 hours, ApoTox-Glo™ Triplex assay using Glomax-Multi Detection system was performed according to the manufacturer's instructions to confirm cell viability, cytotoxicity assay, and caspase-3 activity.

**Q.** For `C[C@@H](O)[C@H](NC(=O)[C@@H]1CCCN1C(=O)CNC(=O)[C@H](CS)NC(=O)[C@@H]1CCCN1C(=O)CNC(=O)[C@H](CCC(N)=O)NC(=O)[C@@H](NC(=O)[C@@H](N)CS)[C@@H](C)O)C(=O)O` [osmotin peptide] (H-CTQGPCGPT-OH), which “migration to the hippocampus of the brain” value ([1]; intraperitoneal (IP) injection) is on record?
**A.** The value was “migrated to the hippocampus of the brain”.

**Q.** And the “migration to cortex and hypothalamus of the brain” value ([1]; intravenous injection, FIG. 4)?
**A.** The value was “migrated to cortex and hypothalamus of the brain”.

**Q.** And the “migration to the hippocampus of the brain” value ([1]; tail vein injection (IV))?
**A.** The value was “migrated to the hippocampus of the brain”.

**Q.** And the cytotoxicity [2]?
**A.** The cytotoxicity was “little cytotoxicity”.
